Legend:
Format in all cases: functional
Mus musculus [1] = test: Antidepressant like activity in Swiss albino mouse assessed as immobility time at 20 mg/kg, ip administered 30 mins prior to test and measured last 4 mins of 6 mins test by forced swimming test (reference value: 162.71 +/- 6.8 secs)
Mus musculus [2] = test: Antidepressant like activity in Swiss albino mouse assessed as immobility time at 10 mg/kg, ip administered 30 mins prior to test and measured last 4 mins of 6 mins test by forced swimming test (reference value: 162.71 +/- 6.8 secs)
Mus musculus [3] = test: Antidepressant like activity in Swiss albino mouse assessed as immobility time at 5 mg/kg, ip administered 30 mins prior to test and measured last 4 mins of 6 mins test by forced swimming test (reference value: 162.71 +/- 6.8 secs)

`CN(C)CCCN1c2ccccc2CCc2ccccc21` [IMIPRAMINE] showed a Time (Mus musculus [1]) of 77.81 s, a Time (Mus musculus [2]) of 119.63 s and a Time (Mus musculus [3]) of 170.42 s.
